Values of other authors in patent US12507891B2 (priority 2020, dated 2025).

Conditions: incrementally increased propofol hypnosis

Compound: CC(C)c1cccc(C(C)C)c1O [propofol]
- PUAL under propofol hypnosis: PUAL values remain within normal ranges until a subject becomes completely unresponsive
